Laboratory results taken from patent publication US12702657B2, “Treatment and prevention of dengue disease” (Janssen Pharmaceuticals, Inc., priority 2019, dated 2026).

Test system: DENV-2 Rega lab strain
Assay: Lethal DENV challenge study (survival study) in AG129 mice with 4G2 antibody-dependent enhancement
Format: in vivo
Conditions: monitored max. 25 days, 10^6 PFU
Experimental: In the lethal DENV challenge study (or survival study), antibody-dependent-enhancement (ADE) induced dengue disease is imitated by injecting AG129 mice (n=10 per group) i.p. with Anti-Flavivirus Group Antigen Antibody, clone D1-4G2-4-15 (‘4G2’; Millipore), one day prior to challenge with DENV-2 Rega lab strain (1×10^6 PFU, i.p.). Animals were treated by administering compound (b) by oral gavage with a first administration at one hour prior to infection. The treatment continued for five consecutive days with one administration of compound (b) every 12 hours (twice daily or b.i.d.). (FIG. 15X).
The mice were divided in several groups (n=8/group for the viremia study and n=10/group for the survival study) representing the following treatment regimens: • (i) vehicle, 80%/20% PEG400/H2O • (ii) compound (b): 30 mg/kg/dose b.i.d. • (iii) compound (b): 10 mg/kg/dose b.i.d. • (iv) compound (b): 3 mg/kg/dose b.i.d. • (v) compound (b): 1 mg/kg/dose b.i.d.
Next, the impact of compound (b) was assessed on virus-induced disease and mortality when dosed (orally, b.i.d.) for just 5 consecutive days starting at the day of infection (survival study). Animals were monitored for a maximum period of 25 days. All but one (19 of 20) vehicle-treated mice had to be euthanized. At a dose of 30 mg/kg, 90% of the mice survived the viral challenge and at doses of 10, 3 and 1 mg/kg, the survival rate was respectively 80%, 85% and 75% (FIG. 15Z).

## COc1cc(NC(C(=O)N2CCc3ccc(OC(F)(F)F)cc32)c2ccc(Cl)cc2)cc(OCCCC(=O)O)c1 (stereo not shown) [compound (b)]
1 mg/kg b.i.d. orally for 5 days
  survival rate: 75%
3 mg/kg b.i.d. orally for 5 days
  survival rate: 85%
10 mg/kg b.i.d. orally for 5 days
  survival rate: 80%
30 mg/kg b.i.d. orally for 5 days
  survival rate: 90%
